According to the supplement of paper PMC5908809:

Tests used:
[1] = system: SNK-6 (IL-2 2.5 ng/mL); assay: percent inhibition of viability; higher = more inhibition; conditions: 72 h
[2] = system: normal primary NK cells, pool 3 (3 donors) (IL-2 2.5 ng/mL); assay: as above; conditions: 72 h
[3] = system: NK-YS (IL-2 2.5 ng/mL); assay: as above; conditions: 72 h
[4] = system: NK-92 (IL-2 2.5 ng/mL); assay: as above; conditions: 72 h
[5] = system: normal primary NK cells, pool 2 (3 donors) (IL-2 2.5 ng/mL); assay: as above; conditions: 72 h
[6] = system: KAI3 (IL-2 2.5 ng/mL); assay: as above; conditions: 72 h
[7] = system: IMC-1 (IL-2 20 ng/mL); assay: as above; conditions: 72 h
[8] = system: normal primary NK cells, pool 1 (3 donors) (IL-2 2.5 ng/mL); assay: as above; conditions: 72 h
[9] = system: NKL (IL-2 2.5 ng/mL); assay: as above; conditions: 72 h
[10] = system: KHYG-1 (IL-2 2.5 ng/mL); assay: as above; conditions: 72 h
[11] = system: normal primary NK cells, pool 1 (3 donors), resting (IL-2 0 ng/mL); assay: as above; conditions: 72 h
[12] = system: YT (IL-2 2.5 ng/mL); assay: as above; conditions: 72 h
[13] = system: DERL-7 (IL-2 2.5 ng/mL); assay: as above; conditions: 72 h
[14] = system: SNK-6 (IL-2 2.5 ng/mL); assay: drug sensitivity score (DSS) (DSS units); higher = more sensitive; extreme values may be limits of the assay; conditions: 72 h
[15] = system: normal primary NK cells, pool 3 (3 donors) (IL-2 2.5 ng/mL); assay: as above; conditions: 72 h
[16] = system: NK-YS (IL-2 2.5 ng/mL); assay: as above; conditions: 72 h
[17] = system: NK-92 (IL-2 2.5 ng/mL); assay: as above; conditions: 72 h
[18] = system: normal primary NK cells, pool 2 (3 donors) (IL-2 2.5 ng/mL); assay: as above; conditions: 72 h
[19] = system: KAI3 (IL-2 2.5 ng/mL); assay: as above; conditions: 72 h
[20] = system: IMC-1 (IL-2 20 ng/mL); assay: as above; conditions: 72 h
[21] = system: normal primary NK cells, pool 1 (3 donors) (IL-2 2.5 ng/mL); assay: as above; conditions: 72 h
[22] = system: NKL (IL-2 2.5 ng/mL); assay: as above; conditions: 72 h
[23] = system: KHYG-1 (IL-2 2.5 ng/mL); assay: as above; conditions: 72 h
[24] = system: normal primary NK cells, pool 1 (3 donors), resting (IL-2 0 ng/mL); assay: as above; conditions: 72 h
[25] = system: YT (IL-2 2.5 ng/mL); assay: as above; conditions: 72 h
[26] = system: DERL-7 (IL-2 2.5 ng/mL); assay: as above; conditions: 72 h
[27] = system: normal NK cells expanded with K562-aAPC; assay: percent inhibition of viability; higher = more inhibition; conditions: 72 h, IL-2 2.5 ng/mL
Procedure: (§1)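 Drug sensitivity and resistance testing on K562-aAPC-expanded normal NK cells: 5 concentrations (10-fold steps over a 10,000-fold range), 72 h at 37 °C, viability by CellTiter-Glo normalised to DMSO and benzethonium chloride controls; DSS from the fitted curve.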

[28] = system: normal NK cells expanded with K562-aAPC; assay: drug sensitivity score (DSS) (DSS units); higher = more sensitive; extreme values may be limits of the assay; conditions: 72 h; IL-2 2.5 ng/mL
Procedure: as §1

O=C(NOCCO)c1ccc2cncn2c1Nc1ccc(I)cc1F [GDC-0623] (max concentration tested 2500 nM)
percent inhibition of viability [%]
Conditions | 0.25 nM | 2.5 nM | 25 nM | 250 nM | 2500 nM
[1] | 6.88 | -4.38 | -13.8 | -14.5 | -33.3
[2] | -5.35 | -2.96 | -2.99 | 19.2 | 1.26
[3] | -3.81 | -3.05 | 2.89 | 12.4 | 10.4
[4] | -2.15 | -3.76 | -6.69 | -7.14 | -20.9
[5] | 0.23 | -3.52 | 5.29 | 8.89 | 14.6
[6] | -1.35 | 0.84 | 4.63 | 16.2 | 24.8
[7] | -4.83 | -0.98 | -7.63 | -7.39 | -5.55
[8] | -9.21 | -4.95 | 0.24 | 3.46 | 15.2
[9] | -5.9 | -3.61 | 37.9 | 65.4 | 62.6
[10] | -2.63 | 1.52 | 26.2 | 53.6 | 53.1
[11] | -7.6 | 7.27 | 7.92 | 9.81 | 15.9
[12] | 0.15 | -1.83 | -0.28 | 6.96 | -0.89
[13] | 1.53 | 2.87 | 4.11 | 20.2 | 49.3
[27] | -1.46 | -4.58 | 0.15 | 3.69 | -1.38

Conditions | drug sensitivity score
[14] | 0
[15] | 0
[16] | 0.81
[17] | 0.89
[18] | 0.54
[19] | 2.53
[20] | 0.89
[21] | 0.57
[22] | 16.7
[23] | 13
[24] | 0.97
[25] | 0
[26] | 4.82
[28] | 0

Cn1cc(C2=C(c3cn(C4CCN(Cc5ccccn5)CC4)c4ccccc34)C(=O)NC2=O)c2ccccc21 [Enzastaurin] (max concentration tested 10000 nM)
percent inhibition of viability [%]
Conditions | 1 nM | 10 nM | 100 nM | 1000 nM | 10000 nM
[1] | -2.07 | -1.57 | 11 | -2.69 | 14.5
[2] | -14.8 | -5.85 | 0.91 | -0.47 | 24.4
[3] | 0.58 | 2.87 | 5.54 | 3.28 | 8.57
[4] | 5.42 | 5.65 | -7.08 | -10.9 | 14.2
[5] | -9.8 | 0.84 | 10.8 | -7.31 | 23.3
[6] | -2.12 | 1.12 | -3.1 | -5.65 | 1.6
[7] | -6.89 | 3.57 | 0.18 | 12 | 33.1
[8] | 2.52 | -11.7 | -6.73 | -14.6 | -7.58
[9] | -10.8 | -1.53 | 6.99 | 9.21 | 4.11
[10] | 0.22 | 1.8 | 5.25 | 15.6 | 19
[11] | 3.14 | -9.37 | -6.91 | -38.3 | -57.7
[12] | 0.21 | 3.25 | 5.09 | 4.05 | 16.4
[13] | 1.51 | -3.14 | -1.37 | -1.66 | 38.9
[27] | -2.11 | 0.83 | 0.77 | 6.44 | 4.35

Conditions | drug sensitivity score
[14] | 0.12
[15] | 0.87
[16] | 0
[17] | 0.06
[18] | 0.55
[19] | 0
[20] | 3.17
[21] | 0
[22] | 0
[23] | 2
[24] | 0
[25] | 0.24
[26] | 1.77
[28] | 0
